Patent US7943606B2, “Compositions and methods to control abnormal cell growth” (CanCure Laboratories, LLC, priority 2005, dated 2011)
Where “and” joins values, the source holds several entries; their conditions need not be identical. Equal values may be shown once.

What was measured:
[1] = system: HL-60, HT-168, PC-3 and T47D cells; assay: Viability of four human cancer cell types by Trypan blue exclusion; assay type: cell-based
Protocol: PC-3 human prostate adenocarcinoma cells were cultured in 12-well plates in Ham's F12 cell culture medium supplemented with 7% fetal bovine serum; the medium was changed for fresh 10% medium 2 hours prior to treatments. HL-60 human leukemia cells (in flasks) and HT 168 human melanoma cells were cultured in RPMI 1640 medium supplemented with 10% FCS; treatment of HL-60 and HT-168 cells were performed in flasks and 12-well plates, respectively. T47D cells were cultured in 12-well plates in RPMI 1640 medium supplemented with 2 mM L-glutamine, 10 mM Hepes, 1 mM sodium pyruvate, 4.5 g/L glucose, 1.5 g/L sodium bicarbonate, 0.2 I.U. bovine insulin/ml, and 10% fetal bovine serum; the medium was changed for fresh 10% serum-containing medium 2 hours prior to treatments. All cells were incubated for 96 hours in the absence (□) or presence of 25 μM CCDTHT ? , 50 μM CCDTHT ? , or 75 μM CCDTHT (▪). In this experiment, the viability of the cell cultures was estimated by Trypan blue exclusion using hematocytometer, a technique well known to one having ordinary skill in the art. Three independently treated cell cultures, involving at least 300 cells for each treatment, were analyzed. The experimental error is indicated as std. dev.

[2] = system: human leukemia xenografts (HL-60); assay: HL-60 human leukemia xenograft model: tumor volume and survival; assay type: in vivo, mouse
Excerpt: Tumors were developed in first generation hybrid BDF1 (C57 B1 female×DBA/2 male) adult female mice kept at specified pathogen free (SPF) hygienic level. Suspensions of HL-60 human leukemia cells, or approximately 0.1 cm^3 volume of tumor tissue derived from HT-168 human melanoma, PC-3 human prostate adenocarcinoma, T47D human breast carcinoma, MXT mouse mammary cancer, or mouse B16 melanoma cells were implanted subcutaneously to develop the tumors. After 12-18 days when the tumor-bearing mice were first treated, the size of the tumors was in the 0.2-0.4 cm^3 range. All compounds used were dissolved in physiological (0.9%) saline (NaCl), and the agents, alone or in combinations, were applied subcutaneously or intraperitoneally in 50 μl volume. Tumor volume was determined by calipers in three dimensions; this technique is well known to one having ordinary skill in the art. Tumor volume was calculated according to the generally accepted formula: V=a^2×b×π/6, where “a” and “b” mean the shortest and longest diameter, respectively, of the measured tumor.
The HL-60 human leukemia model was developed and treated as described above. On day 12 the mice either remained untreated (Group 1) or were treated with 4.6 mg/kg CCDTHT (Group 2) or 4.6 mg/kg CCDTHT+15 mg/kg highly purified PALP (Group 3). Both CCDTHT and PALP were administered subcutaneously for three 5-day cycles with 2 resting days included between each 5-day cycle. In each group 7 mice were included.

HaCaT keratinocytes = assay: Viability of HaCaT keratinocytes; assay type: cell-based
Protocol: To quantify cell death, around the time when significant and characteristic morphological changes took place, cells were pulse-labeled for 10 minutes with [^3H]thymidine to measure DNA activity as described elsewhere [Tomono, M. and Kiss, Z. (1995), “Ethanol enhances the stimulatory effects of insulin and insulin-like growth factor-I on DNA synthesis in NIH 3T3 fibroblasts,” Biochem. Biophys. Res. Commun. 208, 63-67]. Also, cells were collected as suspensions using trypsin, an established method in cell biology, followed by re-plating of cells in fresh tissue culture medium. If no viable cells were obtained after one week in culture, it meant that the cells at the time of re-plating were dead. Survival values obtained with untreated cells were considered 100%. For the determination of relative number of viable cells after treatments, in most cases the MTT assay was used. This calorimetric assay is based on the ability of living cells, but not dead cells, to reduce 3-(4,5-dimethyl thiazol-2-yl)-2,5-diphenyltetrazolium bromide [Carmichael, J, De Graff, W. G., Gazdar, A. F., Minna, J. D. and Mitchell, J. B. (1987), “Evaluation of tetrazolium-based semi-automated calorimetric assay: Assessment of chemosensitivity testing,” Cancer Res. 47, 936-942]. For this assay, cells were plated in 96-well plates, and the MTT assay was performed both in untreated and treated cell cultures. The MTT assay also was performed at the start of treatments to allow assessment of proliferation rates in the control and treated cell cultures.
HaCaT keratinocytes, frequently used immortalized model cells for studying psoriatic keratinocytes, and HTB-157 human fetus lung fibroblasts were cultured in 10% FBS-containing Dulbecco's modified Eagle's medium (DMEM). Cells were distributed in 96-well plates; when cells were 50-60% confluent, the medium was changed for fresh 10% serum-containing medium, followed by incubations for 48 hours in the absence (□) or presence of 50 μM CCDTHT ? , or 100 μM CCDTHT (▪). The MTT assay was used to determine cell viability. […]

CaCO-2 cells = assay: Viability of CaCO-2 colon adenocarcinoma cells (MTT assay); assay type: cell-based; details: Homo sapiens, Caco-2, 240 h, 10 days, read-out: reduction in the number of viable cells, CaCO-2
Protocol: To quantify cell death, around the time when significant and characteristic morphological changes took place, cells were pulse-labeled for 10 minutes with [^3H]thymidine to measure DNA activity as described elsewhere [Tomono, M. and Kiss, Z. (1995), “Ethanol enhances the stimulatory effects of insulin and insulin-like growth factor-I on DNA synthesis in NIH 3T3 fibroblasts,” Biochem. Biophys. Res. Commun. 208, 63-67]. Also, cells were collected as suspensions using trypsin, an established method in cell biology, followed by re-plating of cells in fresh tissue culture medium. If no viable cells were obtained after one week in culture, it meant that the cells at the time of re-plating were dead. Survival values obtained with untreated cells were considered 100%. For the determination of relative number of viable cells after treatments, in most cases the MTT assay was used. This calorimetric assay is based on the ability of living cells, but not dead cells, to reduce 3-(4,5-dimethyl thiazol-2-yl)-2,5-diphenyltetrazolium bromide [Carmichael, J, De Graff, W. G., Gazdar, A. F., Minna, J. D. and Mitchell, J. B. (1987), “Evaluation of tetrazolium-based semi-automated calorimetric assay: Assessment of chemosensitivity testing,” Cancer Res. 47, 936-942]. For this assay, cells were plated in 96-well plates, and the MTT assay was performed both in untreated and treated cell cultures. […]

[3] = CCDTHT 4.6 mg/kg s.c. without or with PALP 15 mg/kg s.c., 5-day cycles

Compound: CC[N+](C)(CC)CCOCc1ccc2sc3ccccc3c(=O)c2c1.[I-] [CCDTHT, N,N-diethyl-N-methyl-2-[(9-oxo-9H-thioxanthen-2-yl)methoxy]-ethanaminium iodide]
- number of viable cancer cells, HL-60, HT-168, PC-3 and T47D ([1]; 50-75 μM, four days): strongly decreased
- inhibition at 25 µM ([1]; Homo sapiens, 25 μM, 96 hours, Trypan blue, read-out: inhibition of cell proliferation, HL60, HT-168, PC-3 and T47D cells): 40 to 55%
- cytotoxicity at 75 µM ([1]; Homo sapiens, 75 μM, 96 hours, Trypan blue, read-out: decrease in the number of viable cells, HL60, HT-168, PC-3 and T47D cells): 65 to 85%
- Tumor volume, Day 16 [2, 3]: 1.26 ± 0.73 cm^3
- Tumor volume, Day 22 [2, 3]: 2.74 ± 0.37 cm^3
- Tumor volume, Day 26 [2, 3]: 3.72 ± 0.44 cm^3
- Tumor volume, Day 12 ([2]; CCDTHT 4.6 mg/kg s.c. without or with PALP 15 mg/kg s.c., start of treatment): 0.46 ± 0.32 cm^3
- survival of leukemic mice ([2]; CCDTHT 4.6 mg/kg without or with PALP 15 mg/kg): 34.9 ± 6.6 days
- reduction in the number of viable HaCaT cells (HaCaT keratinocytes; 50-100 μM, 48 hours, MTT): 85-98% and 85-100%
- inhibition at 100 µM (HaCaT keratinocytes; Homo sapiens, HaCaT, 48 h, read-out: inhibition of DNA synthesis, HaCaT): ~95%
- viable cells after re-plating of treated HaCaT cells (HaCaT keratinocytes; re-plated after treatment, fresh medium for 1 week): no viable cells were found
- cytotoxicity at 100 µM (CaCO-2 cells): ≤ 50%
